Marks after values point to notes of the source that are not given here.

Type in all cases: in vivo
In assay [1] the test system is Kunming mice. As to the kind of experiment: Influence on autonomic activity of normal mice (ZIL-2 mice autonomic activity meter, counts within 10 min). Particulars: intragastric, x ± s, n = 10; for Times of activities in 1 h after drug administration/10 min: 1 h after administration; for Times of activities in 2 h after drug administration/10 min: 2 h after administration; for Times of activities in 24 h after drug administration/10 min: 24 h after administration. In a few lines: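 Kunming mice (10 per group, half each sex) were dosed at 25, 50 or 100 mg/kg in 0.5% CMC-Na. Spontaneous activity counts over 10 min were recorded at 1 h, 2 h and 24 h post-dose. Groups were compared by ANOVA with Dunnett's test after Levene's check.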

The test system of assay [2] is Kunming mice. As to the kind of experiment: Influence on hypnosis effect with pentobarbital sodium doses below the threshold (25 mg/kg i.p.). As to conditions: pentobarbital sodium 25 mg/kg i.p. 60 min later, sleep observed in 30 min, n = 10. The procedure, abridged:
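Kunming mice (10 per group, half female) given single oral doses of 25, 50 or 100 mg/kg in 0.5% CMC-Na; 60 min later pentobarbital sodium 25 mg/kg i.p. Sleep (righting reflex lost >1 min) scored within 30 min as percentage asleep, χ2 test.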

Assay [3] has as its system Kunming mice. As to the kind of experiment: Influence on hypnosis effect with pentobarbital sodium doses at the threshold (50 mg/kg i.p.). Particulars: pentobarbital sodium 50 mg/kg i.p. 60 min later, x ± s, n = 10. In a few lines: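 Kunming mice (10/group, half each sex) received compound in 0.5% CMC-Na intragastrically at 25, 50 or 100 mg/kg; 60 min later given 0.3% sodium pentobarbital 50 mg/kg i.p. Sleep latency and duration recorded by loss of righting reflex over 1 min; ANOVA and χ2 for sleep incidence.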

The mark [4] stands for this setting: test drug 25 mg/kg intragastric single dose.
The mark [5] stands for this setting: test drug 50 mg/kg intragastric single dose.
Where [6] appears, read: test drug 100 mg/kg intragastric single dose.
[7] abbreviates: 25 mg/kg intragastric single dose.
Setting [8] is: 50 mg/kg intragastric single dose.
The mark [9] stands for this setting: 100 mg/kg intragastric single dose.

In the case of `COc1cc(OC)c2c(c1)OC(c1cc(OC)c(OC)c(OC)c1)CC2=O` (stereo not drawn) [Example 46, 5,7,3′,4′,5′-penta methoxyl-flavanone], the “Times of activities in 1 h after drug administration/10 min” value (shortened to “Times of activities in 1 h”) in assay [1] (25 mg/kg) is 300.8 ± 49.2 /10 min; in assay [1] (50 mg/kg), 264.4 ± 41.3 /10 min; in assay [1] (100 mg/kg), 176.8 ± 43.2 /10 min. Moreover, the “Times of activities in 2 h after drug administration/10 min” value (from here on “Times of activities in 2 h”) is reported as 299.2 ± 38.9 /10 min in assay [1] (25 mg/kg), 254.1 ± 53.2 /10 min in assay [1] (50 mg/kg) and 163.4 ± 36.5 /10 min in assay [1] (100 mg/kg). The “Times of activities in 24 h after drug administration/10 min” value (“Times of activities in 24 h” for short) in assay [1] (25 mg/kg) is listed as 275.4 ± 81.3 /10 min; in assay [1] (50 mg/kg) it was 284.7 ± 78.7 /10 min; in assay [1] (100 mg/kg) it was 294.4 ± 67.5 /10 min. The entries for the “Number of sleeping animals” value in assay [2] (setting [4]), in assay [2] (setting [5]) and in assay [2] (setting [6]) were 3, 6 and 7, respectively. The “rate of sleeping (%)” value in assay [2] (setting [4]) is listed as 30%; in assay [2] (setting [5]), 60** %; in assay [2] (setting [6]), 70** %. Besides, the figures for the duration of sleep in assay [3] (setting [7]), in assay [3] (setting [8]) and in assay [3] (setting [9]) were 27.80 ± 23.24 min, 47.16 ± 23.51 min and 55.58 ± 20.72 min, respectively. The time to sleep in assay [3] (setting [7]) amounted to 5.52 ± 2.31 min; in assay [3] (setting [8]) it was 4.22 ± 1.23 min; in assay [3] (setting [9]), 3.96 ± 2.45 min.
With `COc1c(O)cc(C2CC(=O)c3c(O)cc(O)cc3O2)cc1C(=O)O` (stereo not drawn) [Example 50], the “Times of activities in 1 h” value is on record as 319.2 ± 55.4 /10 min in assay [1] (25 mg/kg), 297.5 ± 42.5 /10 min in assay [1] (50 mg/kg) and 279.4 ± 48.3 /10 min in assay [1] (100 mg/kg). For the same compound, the “Times of activities in 2 h” value is on record as 290.6 ± 41.2 /10 min in assay [1] (25 mg/kg), 253.5 ± 40.4 /10 min in assay [1] (50 mg/kg) and 224.7 ± 46.3 /10 min in assay [1] (100 mg/kg). Also, the “Times of activities in 24 h” value in assay [1] (25 mg/kg) is reported as 303.2 ± 78.6 /10 min; in assay [1] (50 mg/kg), 304.7 ± 92.8 /10 min; in assay [1] (100 mg/kg) it was 312.4 ± 79.1 /10 min. Also, the figures for the “Number of sleeping animals” value in assay [2] (setting [4]), in assay [2] (setting [5]) and in assay [2] (setting [6]) were 2, 4 and 7, respectively. Further, the “rate of sleeping (%)” value is reported as 20% in assay [2] (setting [4]), 40* % in assay [2] (setting [5]) and 70** % in assay [2] (setting [6]). For the same compound, the duration of sleep was 22.71 ± 26.17 min in assay [3] (setting [7]), 28.68 ± 27.56 min in assay [3] (setting [8]) and 65.35 ± 46.27 min in assay [3] (setting [9]). The results for the time to sleep in assay [3] (setting [7]), in assay [3] (setting [8]) and in assay [3] (setting [9]) were 5.41 ± 2.17 min, 5.07 ± 2.34 min and 3.25 ± 1.16 min, respectively.
On to `COc1cc(OC)c2c(c1)OC(c1cc(OC)c(OC)c(OC)c1OC)CC2=O` (stereo not drawn) [Example 66, 5,7,2′,3′,4′,5′-hexa methoxyl-flavanone], for which the “Times of activities in 1 h” value in assay [1] (25 mg/kg) is 307.7 ± 54.6 /10 min; in assay [1] (50 mg/kg), 275.8 ± 44.3 /10 min; in assay [1] (100 mg/kg) it was 258.4 ± 40.3 /10 min. Also, the “Times of activities in 2 h” value in assay [1] (25 mg/kg) is listed as 281.3 ± 31.2 /10 min; in assay [1] (50 mg/kg) it was 270.7 ± 46.3 /10 min; in assay [1] (100 mg/kg) it was 243.9 ± 41.2 /10 min. Besides, the “Times of activities in 24 h” value is given as 314.7 ± 66.7 /10 min in assay [1] (25 mg/kg), 314.1 ± 81.4 /10 min in assay [1] (50 mg/kg) and 334.7 ± 62.9 /10 min in assay [1] (100 mg/kg). Further, the “Number of sleeping animals” value came to 3 in assay [2] (setting [4]), 5 in assay [2] (setting [5]) and 8 in assay [2] (setting [6]). In addition, the “rate of sleeping (%)” value is listed as 30% in assay [2] (setting [4]), 50** % in assay [2] (setting [5]) and 80*** % in assay [2] (setting [6]). Moreover, the figures for the duration of sleep in assay [3] (setting [7]), in assay [3] (setting [8]) and in assay [3] (setting [9]) were 23.81 ± 25.29 min, 27.79 ± 26.78 min and 61.44 ± 47.33 min, respectively. Also, the time to sleep in assay [3] (setting [7]) was determined as 5.37 ± 2.12 min; in assay [3] (setting [8]) it was 5.12 ± 2.65 min; in assay [3] (setting [9]), 3.14 ± 1.10 min.
For `CCCc1cc2c(=O)cc(-c3ccc(C(=O)O)c(C(N)=O)c3)oc2c(I)c1CCS(=O)(=O)O` [Example 35], the “Times of activities in 1 h” value is recorded as 336.84 ± 57.8 /10 min in assay [1] (25 mg/kg), 310.3 ± 48.9 /10 min in assay [1] (50 mg/kg) and 266.8 ± 50.1 /10 min in assay [1] (100 mg/kg). Further, the “Times of activities in 2 h” value was 278.8 ± 49.0 /10 min in assay [1] (25 mg/kg), 244.8 ± 39.6 /10 min in assay [1] (50 mg/kg) and 219.6 ± 47.7 /10 min in assay [1] (100 mg/kg). For the same compound, the “Times of activities in 24 h” value is 307.4 ± 69.8 /10 min in assay [1] (25 mg/kg), 308.1 ± 954 /10 min in assay [1] (50 mg/kg) and 321.5 ± 72.9 /10 min in assay [1] (100 mg/kg). Moreover, the “Number of sleeping animals” value is on record as 4 in assay [2] (setting [4]), 6 in assay [2] (setting [5]) and 7 in assay [2] (setting [6]). For the same compound, the “rate of sleeping (%)” value in assay [2] (setting [4]) is on record as 40* %; in assay [2] (setting [5]) it was 60** %; in assay [2] (setting [6]), 70** %. The duration of sleep in assay [3] (setting [7]) is 38.25 ± 15.16 min; in assay [3] (setting [8]), 57.54 ± 28.39 min; in assay [3] (setting [9]), 58.38 ± 26.82 min. The time to sleep came out at 4.35 ± 1.42 min in assay [3] (setting [7]), 3.88 ± 1.16 min in assay [3] (setting [8]) and 3.76 ± 1.49 min in assay [3] (setting [9]).
Consider `COc1ccc(-c2cc(=O)c3c(OC)c(OC)c(OC)cc3o2)cc1OC` [Example 10, 5,6,7,3′,4′-penta methoxyl-flavone], for which the “Times of activities in 1 h” value is reported as 289.3 ± 50.1 /10 min in assay [1] (25 mg/kg), 257.2 ± 61.3 /10 min in assay [1] (50 mg/kg) and 131.2 ± 30.8 /10 min in assay [1] (100 mg/kg). In addition, the results for the “Times of activities in 2 h” value in assay [1] (25 mg/kg), in assay [1] (50 mg/kg) and in assay [1] (100 mg/kg) were 275.6 ± 44.1 /10 min, 260.1 ± 58.2 /10 min and 231.6 ± 44.2 /10 min, respectively. Further, the entries for the “Times of activities in 24 h” value in assay [1] (25 mg/kg), in assay [1] (50 mg/kg) and in assay [1] (100 mg/kg) were 315.6 ± 76.3 /10 min, 325.3 ± 80.2 /10 min and 304.1 ± 82.5 /10 min, respectively. Moreover, the “Number of sleeping animals” value is recorded as 2 in assay [2] (setting [4]), 5 in assay [2] (setting [5]) and 6 in assay [2] (setting [6]). Further, the results for the “rate of sleeping (%)” value in assay [2] (setting [4]), in assay [2] (setting [5]) and in assay [2] (setting [6]) were 20%, 50** % and 60** %, respectively. For the same compound, the duration of sleep amounted to 31.72 ± 21.73 min in assay [3] (setting [7]), 39.41 ± 21.74 min in assay [3] (setting [8]) and 59.21 ± 22.41 min in assay [3] (setting [9]). The time to sleep worked out at 5.42 ± 1.58 min in assay [3] (setting [7]), 3.90 ± 1.34 min in assay [3] (setting [8]) and 3.81 ± 1.63 min in assay [3] (setting [9]).

These data come from patent US9669003B2, “Use of flavone and flavanone derivatives in preparation of sedative and hypnotic drugs” (priority 2012, dated 2017).
